Experimental data: ChEMBL document CHEMBL3813616, “Discovery of novel 7-azaindoles as PDK1 inhibitors” (Bioorg Med Chem Lett, 2016)

Tests used:
Design in all cases: scale not given: the % may be the effect or the level left
[1] = molecular target: Casein kinase II (Homo sapiens) (UniProt P67870+P68400+P19784); experiment: Inhibition of human CK2 assessed as enzyme activity at 1 uM using 33P ATP by radioactive filter binding assay; type: protein-complex assay
[2] = molecular target: Serine/threonine-protein kinase pim-3 (Homo sapiens) (UniProt Q86V86); experiment: Inhibition of human PIM3 (2 to 326 residues) assessed as enzyme activity at 1 uM using 33P ATP by radioactive filter binding assay
[3] = molecular target: Tyrosine-protein kinase Yes (Homo sapiens) (UniProt P07947); experiment: Inhibition of human YES1 (1 to 543 residues) assessed as enzyme activity at 1 uM using 33P ATP by radioactive filter binding assay
[4] = molecular target: Proto-oncogene tyrosine-protein kinase Src (Homo sapiens) (UniProt P12931); experiment: Inhibition of human SRC (1 to 536 residues) assessed as enzyme activity at 1 uM using 33P ATP by radioactive filter binding assay
[5] = molecular target: Serine/threonine-protein kinase pim-1 (Homo sapiens) (UniProt P11309); experiment: Inhibition of human PIM1 (2 to 313 residues) assessed as enzyme activity at 1 uM using 33P ATP by radioactive filter binding assay
[6] = molecular target: RAC-alpha serine/threonine-protein kinase (Homo sapiens) (UniProt P31749); experiment: Inhibition of human PKBalpha (118 to 480 residues) assessed as enzyme activity at 1 uM using 33P ATP by radioactive filter binding assay
[7] = molecular target: MAP/microtubule affinity-regulating kinase 3 (Homo sapiens) (UniProt P27448); experiment: Inhibition of human MARK3 (2 to 729 residues) assessed as enzyme activity at 1 uM using 33P ATP by radioactive filter binding assay
[8] = molecular target: T1, 3-phosphoinositide-dependent protein kinase 1 (Homo sapiens) (UniProt O15530); experiment: Inhibition of human PDK1 (52 to 556 residues) assessed as enzyme activity at 1 uM using 33P ATP by radioactive filter binding assay
T1 sequence (whole entry): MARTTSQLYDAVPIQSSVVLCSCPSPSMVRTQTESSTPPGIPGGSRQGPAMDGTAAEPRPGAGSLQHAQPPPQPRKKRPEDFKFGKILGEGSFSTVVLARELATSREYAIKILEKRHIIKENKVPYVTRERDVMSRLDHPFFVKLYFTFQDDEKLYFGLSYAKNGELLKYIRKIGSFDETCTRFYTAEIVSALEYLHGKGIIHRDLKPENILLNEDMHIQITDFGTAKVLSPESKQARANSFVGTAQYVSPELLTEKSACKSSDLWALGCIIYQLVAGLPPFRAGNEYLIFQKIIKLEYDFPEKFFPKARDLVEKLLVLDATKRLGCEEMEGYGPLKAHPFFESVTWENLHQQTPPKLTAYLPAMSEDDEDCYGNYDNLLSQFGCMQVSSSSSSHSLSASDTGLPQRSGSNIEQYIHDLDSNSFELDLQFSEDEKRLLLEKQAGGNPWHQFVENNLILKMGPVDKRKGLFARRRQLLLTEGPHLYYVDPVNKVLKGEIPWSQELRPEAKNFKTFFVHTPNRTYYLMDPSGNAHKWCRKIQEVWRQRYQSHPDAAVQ

[9] = molecular target: Serine/threonine-protein kinase PAK 5 (Homo sapiens) (UniProt Q9P286); experiment: Inhibition of human PAK5 (2 to 719 residues) assessed as enzyme activity at 1 uM using 33P ATP by radioactive filter binding assay
[10] = molecular target: cAMP-dependent protein kinase catalytic subunit alpha (Homo sapiens) (UniProt P17612); experiment: Inhibition of human PKA alpha (2 to 351 residues) assessed as enzyme activity at 1 uM using 33P ATP by radioactive filter binding assay
[11] = molecular target: T2, Serine/threonine-protein kinase BRSK2 (Homo sapiens) (UniProt Q8IWQ3); experiment: Inhibition of human BRSK2 (2 to 674 residues) assessed as enzyme activity at 1 uM using 33P ATP by radioactive filter binding assay
T2 sequence (whole entry): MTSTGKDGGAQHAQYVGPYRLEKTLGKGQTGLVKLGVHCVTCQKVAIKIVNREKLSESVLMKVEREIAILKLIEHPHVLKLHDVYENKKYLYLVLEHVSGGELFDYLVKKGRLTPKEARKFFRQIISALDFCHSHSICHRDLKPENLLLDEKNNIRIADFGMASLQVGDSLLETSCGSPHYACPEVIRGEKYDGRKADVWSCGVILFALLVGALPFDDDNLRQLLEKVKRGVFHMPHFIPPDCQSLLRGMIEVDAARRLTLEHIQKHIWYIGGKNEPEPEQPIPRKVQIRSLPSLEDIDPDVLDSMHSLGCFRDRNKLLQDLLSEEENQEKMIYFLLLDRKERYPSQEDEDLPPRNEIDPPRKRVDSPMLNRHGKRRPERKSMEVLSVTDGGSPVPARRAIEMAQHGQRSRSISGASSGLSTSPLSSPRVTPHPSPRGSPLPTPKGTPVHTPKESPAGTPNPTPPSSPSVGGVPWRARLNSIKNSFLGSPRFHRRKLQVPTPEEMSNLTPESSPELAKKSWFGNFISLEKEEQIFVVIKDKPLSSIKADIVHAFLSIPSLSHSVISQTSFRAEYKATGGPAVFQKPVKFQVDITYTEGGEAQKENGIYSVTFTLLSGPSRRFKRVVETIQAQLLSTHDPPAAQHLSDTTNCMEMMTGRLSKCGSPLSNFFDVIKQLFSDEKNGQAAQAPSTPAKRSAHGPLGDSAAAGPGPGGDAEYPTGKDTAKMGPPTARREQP

Row | Activity [1] | Activity [2] | Activity [3] | Activity [4] | Activity [5] | Activity [6] | Activity [7] | Activity [8] | Activity [9] | Activity [10] | Activity [11] | Structure (SMILES)
1 | -22% | -61% | 2% | -11% | -62% | -23% | -59% | -12% | -30% | -66% | -16% | Nc1nccc(-c2c[nH]c3ncccc23)n1 [MERIOLIN 1]
2 | -10% | -91% | -46% | -34% | -85% | -10% | -89% | -80% | 200% | -38% | -65% | CCc1cc(-c2c[nH]c3ncc(-c4cnn(C5CCNCC5)c4)cc23)nc(N)n1
3 | 14% | -70% | -21% | 7% | -61% | -23% | -58% | -54% | 6% | -54% | -12% | CCCCc1cc(-c2c[nH]c3ncccc23)nc(N)n1
4 | 0% | -98% | -78% | -68% | -98% | -9% | -95% | -92% | -38% | -42% | -65% | CCCCc1cc(-c2c[nH]c3ncc(-c4cnn(C5CCNCC5)c4)cc23)nc(N)n1
